The source made the active and inactive calls. No cut-off for these calls is given here.
Tests used:
[1] = Chemical stability assessed as half life of hydrolysis in physiological solution at pH 7.6; format: physicochemical
[2] = Chemical stability assessed as half life of hydrolysis in alkaline buffer at pH 8.3; format: physicochemical
Periplaneta americana [3] = assay: Activity at nAch receptor in american cockroach neurons assessed as induction of inward current at 10 uM by whole-cell patch clamp method
[4] = Chemical stability assessed as half life of hydrolysis in acidic buffer at pH 5.4; format: physicochemical
Periplaneta americana [5] = assay: Insecticidal activity against american cockroach after 24 hrs; format: functional

SMILES | half-life [1] [h] | half-life [2] [h] | Activity (Periplaneta americana [3]) | half-life [4] [h] | MLD (Periplaneta americana [5])
Cc1oc(=O)oc1CN1CCN(Cc2cnc(Cl)s2)/C1=N\[N+](=O)[O-] | 10.5 | 10.6 | Active | > 48 | 6.4 10^-8mol
Cc1oc(=O)oc1CN1CCN(Cc2ccc(Cl)nc2)/C1=N\[N+](=O)[O-] | 11.6 | 15.5 | Active | > 48 | 6.4 10^-8mol

— ChEMBL document CHEMBL1149571, “Proinsecticide candidates N-(5-methyl-2-oxo-1,3-dioxol-4-yl)methyl derivatives of imidacloprid and 1-chlorothiazolylmethyl-2-nitroimino-imidazolidine” (Bioorg Med Chem Lett, 2007)
